Here are results for 21 compounds from patent publication US7385026B1, “Modified ghrelin polypeptides” (priority 1999, dated 2008).

The target in the assay is T1, rat GHS-receptor (GHR-R) (Rattus norvegicus, UniProt O08725).
T1 construct: A full-length cDNA for rat GHR-R was obtained by RT-PCR; expressed in transfected cells
In words: Ca-releasing activity (increase in intracellular calcium) in CHO-GHSR62 cells, FLIPR. It is filed as cell-based. In short, it runs like this: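 CHO cells stably expressing full-length rat GHS-R (CHO-GHSR62) were cultured 12–15 h, loaded with 4 μM Fluo4 for 1 h and washed with Hank's BSS containing 20 mM Hepes and 2.5 mM probenecid. Ca-releasing activity of ghrelin peptides, fragments or derivatives was read by FLIPR as the fluorescence change after sample addition.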

Setting [1] is: CHO-GHSR62 cells (CHO cells expressing rat GHS receptor), FLIPR, read-out: Ca-releasing activity EC50.

Like-named read-outs stand apart in the source and are kept apart here. Square brackets hold non-standard residues; d marks the D form. Peptide text beside a SMILES is read from it. * marks the point of attachment. Octanoyl = CCCCCCCC(=O)* Bounds are passed on as bounds.

T1 sequence (O08725 whole entry): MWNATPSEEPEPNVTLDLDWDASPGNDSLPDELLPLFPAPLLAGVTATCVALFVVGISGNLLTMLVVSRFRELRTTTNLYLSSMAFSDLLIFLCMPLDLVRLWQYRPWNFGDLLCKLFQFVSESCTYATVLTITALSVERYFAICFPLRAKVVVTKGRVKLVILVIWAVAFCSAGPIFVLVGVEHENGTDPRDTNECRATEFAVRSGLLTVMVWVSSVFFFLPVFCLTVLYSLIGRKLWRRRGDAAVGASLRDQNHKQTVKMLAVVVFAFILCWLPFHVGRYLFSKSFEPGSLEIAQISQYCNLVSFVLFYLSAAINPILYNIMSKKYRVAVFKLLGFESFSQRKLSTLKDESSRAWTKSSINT

In the case of `CC(C)C[C@H](NC(=O)[C@H](CCCCN)NC(=O)[C@H](C)NC(=O)[C@@H]1CCCN1C(=O)[C@@H]1CCCN1C(=O)[C@H](CCCCN)NC(=O)[C@H](CCCCN)NC(=O)[C@H](CO)NC(=O)[C@H](CCC(=O)O)NC(=O)[C@H](CCCCN)NC(=O)[C@H](CCCNC(=N)N)NC(=O)[C@H](CCC(N)=O)NC(=O)[C@H](CCC(N)=O)NC(=O)[C@@H](NC(=O)[C@H](CCCNC(=N)N)NC(=O)[C@H](CCC(N)=O)NC(=O)[C@H](Cc1c[nH]cn1)NC(=O)[C@H](CCC(=O)O)NC(=O)[C@@H]1CCCN1C(=O)[C@H](CO)NC(=O)[C@H](CC(C)C)NC(=O)[C@H](Cc1ccccc1)NC(=O)[C@H](CC1CCCCC1)NC(=O)[C@H](CO)NC(=O)CN)C(C)C)C(=O)N[C@@H](CCC(N)=O)C(=O)N1CCC[C@H]1C(=O)N[C@@H](CCCNC(=N)N)C(=O)O` [Compound 64, [Cha^3]-hGhrelin], the EC50 under setting [1] came out at 19 nM. Same read-out and setting: to `CC(C)C[C@H](NC(=O)[C@H](CCCCN)NC(=O)[C@H](C)NC(=O)[C@@H]1CCCN1C(=O)[C@@H]1CCCN1C(=O)[C@H](CCCCN)NC(=O)[C@H](CCCCN)NC(=O)[C@H](CO)NC(=O)[C@H](CCC(=O)O)NC(=O)[C@H](CCCCN)NC(=O)[C@H](CCCNC(=N)N)NC(=O)[C@H](CCC(N)=O)NC(=O)[C@H](CCC(N)=O)NC(=O)[C@@H](NC(=O)[C@H](CCCNC(=N)N)NC(=O)[C@H](CCC(N)=O)NC(=O)[C@H](Cc1c[nH]cn1)NC(=O)[C@H](CCC(=O)O)NC(=O)[C@@H]1CCCN1C(=O)[C@H](CO)NC(=O)[C@H](CC(C)C)NC(=O)[C@H](Cc1ccccc1)NC(=O)[C@@H](NC(=O)[C@H](CO)NC(=O)CN)C(C)C)C(C)C)C(=O)N[C@@H](CCC(N)=O)C(=O)N1CCC[C@H]1C(=O)N[C@@H](CCCNC(=N)N)C(=O)O` [Compound 74, [Val^3]-hGhrelin] belongs 1600 nM. Take `CCCCCCCC(=O)O` [n-octanoic acid, reference compound]: the “Ca-releasing activity (in words)” value (CHO-GHSR62 cells) is recorded as “did not show a significant Ca-releasing activity”.

As for `CCCCCCCC(=O)OC[C@H](NC(=O)CNC(=O)CN)C(=O)N[C@@H](Cc1ccccc1)C(=O)N[C@@H](CC(C)C)C(=O)N[C@@H](CO)C(=O)N1CCC[C@H]1C(N)=O` [Compound 47, [Gly^2]-Ghrelin (1-7)-amide] (H-GGS(Octanoyl)FLSP-NH2), the EC50 under setting [1] is 78 nM. Regarding `CCCCCCCC(=O)OC[C@H](NC(=O)[C@H](CO)NC(=O)CN)C(=O)N[C@H](Cc1ccccc1)C(=O)N[C@@H](CCCCN)C(N)=O` [Compound 39, [^DPhe^4, Lys^5]-Ghrelin (1-5)-amide] (H-GSS(Octanoyl)[dF]K-NH2), under setting [1], the EC50 is 1700 nM.

Take `CCCCCCCC(=O)OC[C@H](NC(=O)[C@H](CO)NC(=O)CN)C(=O)N[C@@H](Cc1ccccc1)C(=O)N[C@@H](CC(C)C)C(=O)N[C@@H](CO)C(=O)N1CCC[C@H]1C(=O)N[C@@H](CCC(=O)O)C(=O)N[C@@H](Cc1c[nH]cn1)C(=O)N[C@@H](CCC(N)=O)C(=O)N[C@@H](CCCCN)C(=O)N[C@@H](C)C(=O)N[C@@H](CCC(N)=O)C(=O)N[C@@H](CCC(N)=O)C(=O)N[C@@H](CCCNC(=N)N)C(=O)O` [Compound 21, rGhrelin (1-15)]: the EC50 under setting [1] was determined as 8.6 nM. On the same count and under the same terms, to `CCCCCCCCOC[C@@H](NC(=O)CCCCN)C(=O)N[C@H](Cc1ccccc1)C(=O)N[C@@H](CCCCN)C(N)=O` [Compound 77, [N-Aminopentanoyl, ^DSer^3(Octyl), ^DPhe^4, Lys^5]-Ghrelin (3-5)-amide] belongs 1600 nM. Turning to `CCCCCCCC(=O)OC[C@H](NC(=O)[C@H](CO)NC(=O)CN)C(=O)N[C@@H](Cc1ccccc1)C(=O)N[C@@H](CC(C)C)C(=O)N[C@@H](CO)C(N)=O` [Compound 30, Ghrelin (1-6)-amide] (H-GSS(Octanoyl)FLS-NH2), the EC50 under setting [1] amounted to 4.8 nM. Consider `CCCCCCCCOC[C@H](NC(=O)CCCCN)C(=O)N[C@@H](Cc1ccccc1)C(=O)N[C@@H](CC(C)C)C(=O)NCCN` [Compound 85, [N-Aminopentanoyl, Ser^3(Octyl)]-Ghrelin (3-5), aminoethylamide], for which, under setting [1], the EC50 turned out to be 3.5 nM. On the same count and under the same terms, in the case of `CCCCCCCC(=O)OC[C@H](NC(=O)[C@H](CO)NC(=O)CN)C(=O)N[C@@H](Cc1ccccc1)C(=O)N[C@@H](CC(C)C)C(=O)N[C@@H](CO)C(=O)N1CCC[C@H]1C(=O)N[C@@H](CCCCN)C(N)=O` [Compound 35, [Lys^8]-Ghrelin (1-8)-amide] (H-GSS(Octanoyl)FLSPK-NH2) it was 1.1 nM. For `CCCCCCCCOC[C@@H](NC(=O)[C@H](CO)NC(=O)CN)C(=O)N[C@@H](Cc1ccccc1)C(=O)N[C@@H](CC(C)C)C(=O)N[C@@H](CO)C(=O)N1CCC[C@H]1C(N)=O` [Compound 52, [^DSer^3(Octyl)]-Ghrelin (1-7)-amide], the EC50 under setting [1] is greater than 10000 nM. Still for that read-out and setting: to `CCCCCCCC(=O)OC[C@H](NC(=O)[C@H](Cc1c[nH]cn1)NC(=O)CN)C(=O)N[C@@H](Cc1ccccc1)C(=O)N[C@@H](CC(C)C)C(=O)N[C@@H](CO)C(=O)N1CCC[C@H]1C(N)=O` [Compound 45, [His^2]-Ghrelin (1-7)-amide] (H-GHS(Octanoyl)FLSP-NH2) belongs 35 nM; to `CCCCCCCCOC[C@H](NC(=O)[C@H](CO)NC(=O)CN)C(=O)N[C@@H](Cc1ccccc1)C(=O)N[C@@H](CC(C)C)C(=O)N[C@@H](CO)C(=O)N1CCC[C@H]1C(N)=O` [Compound 50, [Ser^3(Octyl)]-Ghrelin (1-7)-amide], 5.8 nM. On to `CC(C)C[C@H](NC(=O)[C@H](CCCCN)NC(=O)[C@H](C)NC(=O)[C@@H]1CCCN1C(=O)[C@@H]1CCCN1C(=O)[C@H](CCCCN)NC(=O)[C@H](CCCCN)NC(=O)[C@H](CO)NC(=O)[C@H](CCC(=O)O)NC(=O)[C@H](CCCCN)NC(=O)[C@H](CCCNC(=N)N)NC(=O)[C@H](CCC(N)=O)NC(=O)[C@H](CCC(N)=O)NC(=O)[C@@H](NC(=O)[C@H](CCCNC(=N)N)NC(=O)[C@H](CCC(N)=O)NC(=O)[C@H](Cc1c[nH]cn1)NC(=O)[C@H](CCC(=O)O)NC(=O)[C@@H]1CCCN1C(=O)[C@H](CO)NC(=O)[C@H](CC(C)C)NC(=O)[C@H](Cc1ccccc1)NC(=O)[C@H](CSC(c1ccccc1)(c1ccccc1)c1ccccc1)NC(=O)[C@H](CO)NC(=O)CN)C(C)C)C(=O)N[C@@H](CCC(N)=O)C(=O)N1CCC[C@H]1C(=O)N[C@@H](CCCNC(=N)N)C(=O)O` [Compound 68, [Cys^3(Trityl)]-hGhrelin], for which the EC50 (Ca-releasing activity EC50, CHO-GHSR62 cells (CHO cells expressing rat GHS receptor), FLIPR) came out at 20 nM.

Consider `CCCCCCCC(=O)OC[C@H](NC(=O)[C@H](CO)NC(=O)CN)C(=O)N[C@@H](Cc1ccccc1)C(=O)N[C@@H](CC(C)C)C(=O)N[C@@H](CO)C(=O)N1CCC[C@H]1C(=O)N[C@@H](CCCNC(=N)N)C(N)=O` [Compound 36, [Arg^8]-Ghrelin (1-8)-amide] (H-GSS(Octanoyl)FLSPR-NH2), for which the EC50 under setting [1] was found to be 1.1 nM. In the case of `CC(C)C[C@H](NC(=O)[C@H](CCCCN)NC(=O)[C@H](C)NC(=O)[C@@H]1CCCN1C(=O)[C@@H]1CCCN1C(=O)[C@H](CCCCN)NC(=O)[C@H](CCCCN)NC(=O)[C@H](CO)NC(=O)[C@H](CCC(=O)O)NC(=O)[C@@H](N)CCCCN)C(=O)N[C@@H](CCC(N)=O)C(=O)N1CCC[C@H]1C(=O)N[C@@H](CCCNC(=N)N)C(=O)O` [Compound 19, Ghrelin (16-28)], the EC50 under setting [1] was greater than 10000 nM and the EC50 (Table 3, Example 9: protease fragments or synthetic peptides, CHO-GHSR62 cells, read-out: Ca-releasing activity (EC50)) was greater than 10000 nM. As to `CC(C)C[C@H](NC(=O)[C@H](CCCCN)NC(=O)[C@H](C)NC(=O)[C@@H]1CCCN1C(=O)[C@@H]1CCCN1C(=O)[C@H](CCCCN)NC(=O)[C@H](CCCCN)NC(=O)[C@H](CO)NC(=O)[C@H](CCC(=O)O)NC(=O)[C@H](CCCCN)NC(=O)[C@H](CCCNC(=N)N)NC(=O)[C@H](CCC(N)=O)NC(=O)[C@H](CCC(N)=O)NC(=O)[C@@H](NC(=O)[C@H](CCCNC(=N)N)NC(=O)[C@H](CCC(N)=O)NC(=O)[C@H](Cc1c[nH]cn1)NC(=O)[C@H](CCC(=O)O)NC(=O)[C@@H]1CCCN1C(=O)[C@H](CO)NC(=O)[C@H](CC(C)C)NC(=O)[C@H](Cc1ccccc1)NC(=O)[C@H](Cc1c[nH]c2ccccc12)NC(=O)[C@H](CO)NC(=O)CN)C(C)C)C(=O)N[C@@H](CCC(N)=O)C(=O)N1CCC[C@H]1C(=O)N[C@@H](CCCNC(=N)N)C(=O)O` [Compound 62, [Trp^3]-hGhrelin], the EC50 under setting [1] is 31 nM. Same read-out and setting: to `CCCCCCCCCCCCCCCC(=O)OC[C@H](NC(=O)[C@H](CO)NC(=O)CN)C(=O)N[C@@H](Cc1ccccc1)C(=O)N[C@@H](CC(C)C)C(=O)N[C@@H](CO)C(=O)N1CCC[C@H]1C(=O)N[C@@H](CCC(=O)O)C(=O)N[C@@H](Cc1c[nH]cn1)C(=O)N[C@@H](CCC(N)=O)C(=O)N[C@@H](CCCCN)C(=O)N[C@@H](C)C(=O)N[C@@H](CCC(N)=O)C(=O)N[C@@H](CCC(N)=O)C(=O)N[C@@H](CCCNC(=N)N)C(=O)N[C@@H](CCCCN)C(=O)N[C@@H](CCC(=O)O)C(=O)N[C@@H](CO)C(=O)N[C@@H](CCCCN)C(=O)N[C@@H](CCCCN)C(=O)N1CCC[C@H]1C(=O)N1CCC[C@H]1C(=O)N[C@@H](C)C(=O)N[C@@H](CCCCN)C(=O)N[C@@H](CC(C)C)C(=O)N[C@@H](CCC(N)=O)C(=O)N1CCC[C@H]1C(=O)N[C@@H](CCCNC(=N)N)C(=O)O` [Compound 14, [Ser^3(Palmitoyl)]-rGhrelin] belongs 6.5 nM; to `CCCCCCCC(=O)OC[C@H](NC(=O)[C@H](CO)NC(=O)CN)C(=O)N[C@@H](Cc1ccccc1)C(=O)N[C@@H](CC(C)C)C(=O)N[C@@H](CO)C(=O)N1CCC[C@H]1C(=O)N[C@@H](CCC(=O)O)C(N)=O` [Compound 28, Ghrelin (1-8)-amide], 13 nM; to `CCCCCCCC(=O)OC[C@H](NC(=O)[C@H](CO)NC(=O)CN)C(N)=O` [Compound 34, Ghrelin (1-3)-amide] (H-Gly-Ser-Ser(Octanoyl)-NH2), greater than 10000 nM.

As to `CCCCCCCC(=O)OC[C@H](NC(=O)[C@H](CO)NC(=O)CNC(C)=O)C(=O)N[C@@H](Cc1ccccc1)C(=O)N[C@@H](CC(C)C)C(=O)N[C@@H](CO)C(=O)N1CCC[C@H]1C(=O)N[C@@H](CCC(=O)O)C(=O)N[C@@H](Cc1c[nH]cn1)C(=O)N[C@@H](CCC(N)=O)C(=O)O` [Compound 41, [N-Acetyl]-Ghrelin (1-10)], the EC50 under setting [1] is greater than 10000 nM.

As usually defined, the EC50 is the concentration needed to bring the measured effect to its halfway point.
